Measurements reported in patent US20080255128A1, “PHTHALAZINONE DERIVATIVES” (priority 2007, published 2008).
Entries after “also recorded” stand apart in the source; their conditions may differ.

Test: Stereochemical stability of separated isomers on standing in solution
Type: physicochemical
Details: after separation by chiral HPLC
Procedure: has a chiral centre where indicated. This racemic mixture was separated using chiral preparative HPLC.
This separation was carried out on a Rainin prep machine (200 ml heads) using a Merck 100 mm 20 μm Chiralpak AD column. The Eluent was a mixture of i-hexane, ethanol and methanol (70:15:15), which was flowed at a rate of 190 ml/min. The analaysis was carried out with a wavelength of 215 nm. Complete separation of the two isomers was achieved using a sample concentration of 12.5 mg/ml, an injection volumn of 40 ml and a run time of 3 hours.

CC1C(=O)N(c2cc(Cc3n[nH]c(=O)c4ccccc34)ccc2F)C(=O)N1CCN1CCCC1 (racemic) [Compound 9, 3-(2-fluoro-5-((4-oxo-3,4-dihydrophthalazin-1-yl)methyl)phenyl)-5-methyl-1-(2-(pyrrolidin-1-yl)ethyl)imidazolidine-2,4-dione]
stereochemical stability in solution: epimerise on standing in solution; also recorded: racemises
